≈ marks a conversion by molar mass, not a printed value. Entries after “also recorded” stand apart in the source; their conditions may differ.
What was measured:
[1] = Aerodynamic droplet size characterization, AERONEB Pro nebulizer and eight-stage cascade impactor; format: physicochemical
Description: The performance of an inhalable formulation of the invention was evaluated using an AERONEB® Pro nebulizer and a cascade impactor. Aerodynamic droplet size distributions were determined using an adapted USP Apparatus 1 nonviable eight-stage cascade impactor (Thermo-Anderson, Smyrna, Ga.) with a spacer.
Aerodynamic droplet size distributions were determined using a USP Apparatus 1 nonviable eight-stage cascade impactor (Thermo-Anderson, Symrna, Ga.) to quantify total emitted dose (TED) from the nebulizer output, mass median aerodynamic diameter (MMAD), geometric standard deviation (GSD), and percentage droplets with an aerodynamic diameter less than 4.7 micrometer (defined as the percentage fine particle fraction or FPF). The aerodynamic droplet size distribution was conducted as adapted from the guidelines described in USP 30 Section 601: Aerosols, Nasal Sprays, Metered-dose Inhalers, and Dry Powder Inhalers.

[2] = tested on: Aspergillus fumigatus clinical isolate 293 (AF 293); test: Survival of A. fumigatus-infected immunosuppressed mice (Kaplan-Meier); format: in vivo; details: for Percent Survival / Median Survival: A. fumigatus-infected female ICR mice, VOR inhalation BID 30-40 mg/kg, AmB intraperitoneal QD 1 mg/kg; for Percent Survival: to Day +12
Description: Conidia were harvested from Aspergillus fumigatus clinical isolate 293 (AF 293) cultures grown on potato dextrose agar (Hardy Diagnostics, Santa Maria, Calif.) by washing and scraping agar surfaces with 0.1% Tween 80 in sterile physiological saline and filtering through sterile glass wool. Conidia were re-suspended to achieve a final inoculum of ˜1×10^9 conidia/mL, as confirmed by hemocytometer counts and serial plating.
Mice were rendered immunosuppressed by intraperitoneal cyclophosphamide (250 mg/kg) and subcutaneous cortisone acetate (250 mg/kg) two days prior to inoculation (Day −2). Both cyclophosphamide (200 mg/kg intraperitoneal) and cortisone acetate (250 mg/kg subcutaneously) were re-administered on Day +3 following inoculation. Mice also received prophylactic antibiotic therapy of ceftazidime 50 mg/kg administered sub-cutaneously on Day −2 through Day +7.
To simulate pulmonary pathogenesis, mice were placed inside an acrylic chamber, and A. fumigatus conidia were introduced by aerosolizing the conidial suspension with a small particle nebulizer (Hudson Micro Mist, Hudson RCI, Temecula, Calif.) driven by compressed air. A standard exposure time of 1 hour was used to allow for complete aerosolization of the conidial suspension. Starting inocula were assessed by colony forming unit (CFU) enumeration from mice one hour post-inoculation.
The inhaled control group received 20 minute nebulizations of 100 mg/mL CAPTISOL® solutions BID beginning on Day −2 and continuing through Day +7. The intraperitoneal AmB group received 1 mg/kg Amphotericin B deoxycholate (Apothecon, Princeton, N.J.) by intraperitoneal injection (IP) once daily (QD) on Day +1 and continuing through Day +7 (FIG. 2).
Statistical analyses were conducted as follows. Survival was plotted by Kaplan-Meier analysis, and differences in median survival and percent survival between prophylaxis groups were analyzed by the log-rank test and chi-square test, respectively, using Prism version 4 software (GraphPad, San Diego, Calif.). […] A p-value of ≦0.05 was considered statistically significant for all comparisons.

Aspergillus fumigatus [3] = test: Pulmonary fungal burden by colony forming units in infected mice; format: in vivo
Description: Mice were monitored for an additional 5 days following discontinuation of treatment. Animals that appeared moribund prior to the end of the study were euthanized by halothane and death was recorded as occurring the next day. 12 mice were randomly selected from each group and euthanized on Day +8 for fungal burden analysis while any remaining mice were euthanized on Day +12. 2 additional mice were randomly selected from each group and euthanized on Day +8 and Day +12 for histological analysis
Lungs were homogenized in sterile saline (total volume 2 mL) supplemented with gentamicin and chloramphenicol using a tissue homogenizer (Polytron Dispensing and Mixing Technology PT 2100, Kinematica, Cincinnati, Ohio). Serial dilutions were prepared in sterile saline and plated in duplicate onto potato dextrose agar. Following 24 hours of incubation at 37° C., colonies were enumerated and colony forming units (CFU) per gram of lung tissue for each animal were calculated.
Statistical analyses were conducted as follows. Survival was plotted by Kaplan-Meier analysis, and differences in median survival and percent survival between prophylaxis groups were analyzed by the log-rank test and chi-square test, respectively, using Prism version 4 software (GraphPad, San Diego, Calif.). Differences in fungal burden endpoints (CFU/g and CE) were assessed for significance by analysis of variance with Tukey's post-test for multiple comparisons. A p-value of ≦0.05 was considered statistically significant for all comparisons.

A. fumigatus = test: Lung histopathology, pulmonary lesion counts in A. fumigatus-infected mice; format: in vivo, Aspergillus fumigatus
Description: Histopathological changes in lung tissue were evaluated and compared for four mice in each of the inhaled voriconazole, inhaled control, and intraperitoneal AmB groups. The inhaled control was aerosolized CAPTISOL® at a concentration of 100 mg/mL over 20 minutes. On day 8 post inoculation, animals were euthanized using halothane and 10% volume/volume formaldehyde was instilled into the lungs via the trachea. Lungs were then harvested and placed into 10% volume/volume formaldehyde. Tissue was fixed in formaldehyde for an adequate period of time followed by processing and embedding into paraffin wax. Coronal sections of the entire lung were obtained at a thickness of 4-6 μm and mounted on slides. Sections were stained with hematoxylin and eosin and viewed by light microscopy with a Zeiss AxioVision Imager at 10× magnification. Two investigators were blinded and independently evaluated each lung section. The extent of lung damage caused by invasive hyphae was recorded and quantified by counting and normalizing the number of gross lesions.
Normalization of the histopathology results was achieved by using the number of lung pieces (sections) on the slide as a denominator. The total number of lesions on the slide were counted and then divided by the number of pieces of tissue on that slide. This was done because the number of pieces of tissue per slide (again, all from the same cut of lung from the same animal) ranged from 4 to 9. For example, the normalized number of lesions would be 0.4 if 2 lesions were observed on a slide with 5 lung pieces. Similarly, the normalized value would be 0.14 if 1 lesion was observed on a slide with 7 lung pieces.

Aspergillus fumigatus [4] = details: cited from earlier work
[5] = single dose of IV or oral voriconazole; cited from earlier work
[6] = Single-dose pharmacokinetics of inhaled voriconazole in mice; details: for AUC(0-t): AUC (0-6 hr) Plasma
Description: Initially, a single dose PK profile was performed on large mice with a 5 L/min flow rate through the dosing apparatus (see Table 2).
A subsequent PK study was then performed on smaller mice due to the mouse size constraints of the murine model of infection at a lower air flow rate of 1 L/min. Male ICR mice were exposed to a 20 minute nebulization period. […] Plasma was separated from whole blood collected to determine drug concentration (adapted from Pascual et al., Antimicrobial Agents and Chemotherapy, 2007, 51:1). Lungs were harvested and homogenized to determine drug concentration (adapted from Lutsar et al., Clinical Infectious Disease, 2003, 37:5).
Mice were dosed using a nose-only dosing apparatus as illustrated in FIGS. 1A-1B. VFEND® IV was reconstituted, diluted, and aerosolized as described previously. The airflow through the dosing apparatus was varied from 1-5 L/min (see Table 2). Sufficient solution was added to the medication reservoir to have residual volume remaining after 20 minutes. The nose-only dosing apparatus and nebulizer were disassembled between each dose, cleaned, dried, and reassembled.
Pharmacokinetic (PK) profiles were determined for high flow rate and low flow rate mice groups following a single 20 minute nebulization. Mice were ordered with masses of 32 g (high flow rate mice) and 20 g (low flow rate mice). Two or more mice were sacrificed by carbon dioxide narcosis at each time point (high flow rate mice—5, 10, 20, 30, 60, 90, 150, 240, 360, 720, and 1440 minutes or low flow rate mice—10, 30, 60, 240, 360, and 480 minutes). Whole blood was collected by cardiac puncture, stored in heparinized vials, and centrifuged to obtain plasma. Surgery was also performed on each mouse to extract the whole lungs which were then homogenized in 1 mL of normal saline. […] The trapezoidal rule was used to estimate the area under the curve (AUC) for each concentration versus time profile.
Briefly, sterile water for injection (SWFI) was added to lung tissue and homogenized using a rotor and stator high shear homogenizer. Proteins and other cellular components were precipitated following addition of 0.2M borate buffer (pH 9.0), ethyl acetate, and centrifugation. Supernatant was then extracted three times and liquid was evaporated under a gentle stream of nitrogen.
For lung tissue, SWFI was added to lung tissue and homogenized using a rotor and stator high shear homogenizer. […] Supernatant was then extracted three times and liquid was evaporated under a gentle stream of nitrogen.
Each sample was analyzed using a Waters Breeze liquid chromatograph (Waters Corporation, Milford Mass.) equipped with a heated (35° C.) JUPITER® C18 (150 mm×4.6 mm, 5 micrometer) with a Universal security guard (Widepore C18) guard column (Phenomenex, Torrance, Calif.). The sample volume was 50 microliter with a UV detection wavelength of 254 nm. The mobile phase consisted of a 50:50 mixture of 0.01 M sodium acetate buffer and methanol at 1 mL/min.
Male ICR mice were dosed using a nose-only dosing apparatus as illustrated in FIGS. 1A and 1B. The airflow through the dosing apparatus was varied from 1-5 L/min. VFEND® IV was reconstituted, diluted, and sufficient solution was added to the medication reservoir to have residual volume remaining after 20 minutes. The nose-only dosing apparatus and nebulizer were disassembled between each dose, cleaned, dried, and reassembled.
Single-dose pharmacokinetic profiles were determined in two groups of mice: a high flow-rate group (5 L/min air flow, 32 g average mass) and low flow-rate group (1 L/min, 20 g average mass). Two or more mice were sacrificed by carbon dioxide narcosis at each time point (high flow-rate: 5, 10, 20, 30, 60, 90, 150, 240, 360, 720, and 1440 minutes or low flow-rate mice: 10, 30, 60, 240, 360, and 480 minutes). Whole blood was collected by cardiac puncture into heparinized vials and centrifuged to obtain plasma.

[7] = normalized lesions, listed as VRC
[8] = Small Mice (low flow rate, 1 L/min), single dose

CC(c1ncncc1F)C(O)(Cn1cncn1)c1ccc(F)cc1F (stereo not shown) [Voriconazole, 2-(2,4-difluorophenyl)-3-(5-fluoropyrimidin-4-yl)-1-(1H-1,2,4-triazol-1-yl)butan-2-ol]
FPF (fine particle fraction) ([1]; Average Results of Test 1 and 2, 6.25 mg/mL): > 70%
estimated TED, based on measured residual volumes ([1]; all dosing during the survival study): 25.44 mg
Percent Survival [2]: 66.7%
Percent Survival ([2]; listed as voriconazole): Approximately 67%
Median Survival [2]: >12 days
Median Survival ([2]; listed as voriconazole): over 12 days
difference in survival versus negative control (inhaled Captisol) and positive control (intraperitoneal Amphotericin B) ([2]; Kaplan-Meier survival curves): statistically significant (p<0.05) difference in survival
A - Day 8 Fungal Burden Determined by CFU, Mean (Aspergillus fumigatus [3]; Day +8): 4.26 log10 CFU
A - Day 8 Fungal Burden Determined by CFU, Median (Aspergillus fumigatus [3]; Day +8): 4.21 log10 CFU
A - Day 8 Fungal Burden Determined by CFU, Range (Aspergillus fumigatus [3]; Day +8): (3.62-4.68) log10 CFU
B - Fungal Burden Determined by CFU for All Mice, Mean (Aspergillus fumigatus [3]; all samples, day 8 and day 12): 3.88 log10 CFU
B - Fungal Burden Determined by CFU for All Mice, Median (Aspergillus fumigatus [3]; all samples, day 8 and day 12): 4.14 log10 CFU
B - Fungal Burden Determined by CFU for All Mice, Range (Aspergillus fumigatus [3]; all samples, day 8 and day 12): (2.60-4.68) log10 CFU
reduction in fungal burden between the groups (CFUs per gram of lung mass and CEs by qPCR) (Aspergillus fumigatus [3]; in vivo): no significant reduction in fungal burden
lung histopathology findings (in words) (A. fumigatus; A. fumigatus-infected mice, aerosolized voriconazole, intraperitoneal amphotericin B): fewer signs of invasive disease and markedly improved histological findings; also recorded: fewer signs of invasive disease and markedly improved histological results; also recorded: Invasive hyphae and tissue destruction characteristic of invasive pulmonary aspergillosis were not observed
pulmonary lesions normalized for the number of lung tissue pieces per slide, 25th Percentile (A. fumigatus; normalized lesions): 0.19
pulmonary lesions normalized for the number of lung tissue pieces per slide, 75th Percentile (A. fumigatus; normalized lesions): 0.51
pulmonary lesions normalized for the number of lung tissue pieces per slide, Maximum (A. fumigatus; normalized lesions): 0.55
pulmonary lesions normalized for the number of lung tissue pieces per slide, Mean (A. fumigatus; normalized lesions): 0.4
pulmonary lesions normalized for the number of lung tissue pieces per slide, Median (A. fumigatus; normalized lesions): 0.37
pulmonary lesions normalized for the number of lung tissue pieces per slide, Minimum (A. fumigatus; normalized lesions): 0.14
pulmonary lesions normalized for the number of lung tissue pieces per slide, 25th Percentile (A. fumigatus; [7]): 0.2
pulmonary lesions normalized for the number of lung tissue pieces per slide, 75th Percentile (A. fumigatus; [7]): 0.5
pulmonary lesions normalized for the number of lung tissue pieces per slide, Maximum (A. fumigatus; [7]): 0.6
pulmonary lesions normalized for the number of lung tissue pieces per slide, Median (A. fumigatus; [7]): 0.4
pulmonary lesions normalized for the number of lung tissue pieces per slide, Minimum (A. fumigatus; [7]): 0.1
pulmonary lesions in all available histological samples, 25th Percentile (A. fumigatus; number of lesions): 1.3
pulmonary lesions in all available histological samples, 75th Percentile (A. fumigatus; number of lesions): 4.3
pulmonary lesions in all available histological samples, Maximum (A. fumigatus; number of lesions): 5.0
pulmonary lesions in all available histological samples, Mean (A. fumigatus; number of lesions): 2.5
pulmonary lesions in all available histological samples, Median (A. fumigatus; number of lesions): 2.0
pulmonary lesions in all available histological samples, Minimum (A. fumigatus; number of lesions): 1.0
MIC50 (Aspergillus fumigatus [4]; A. fumigatus clinical test isolates): 0.25 µg/mL (≈ 0.716 µM)
minimum inhibitory concentrations for 90% of isolates (MIC90) (Aspergillus fumigatus [4]; Aspergillus fumigatus): 0.5-1 microgram/mL
MIC90 (Aspergillus fumigatus [4]; red line in FIG. 10): 0.52 µg/mL (≈ 1.49 µM)
typical Tmax in human plasma [5]: 50 to 66 min
Cmax Lung ([6]; Large Mice (high flow rate, 5 L/min), single dose): 1.62 microgram/g
AUC (0-6 hr) Lung [6, 8]: 2408.0 microgram × min/g
Cmax Lung [6, 8]: 11.02 microgram/g
Kp ([6]; male, ICR, mouse, in vivo, inhaled or intranasal): 1.4 to 1.6
Tmax ([6]; male, ICR, mouse, lung, inhaled or intranasal, 6.09 microgram/mL, Tmax Lung, Small Mice (low flow rate, 1 L/min), single dose, 20 minute nebulization): ≤ 30 min
Tmax ([6]; male, ICR, mouse, lung, inhaled or intranasal, Lung Tmax, summary table): 10 to 30 min
Tmax ([6]; male, ICR, mouse, lung, inhaled or intranasal, Tmax Lung, Large Mice (high flow rate, 5 L/min), single dose, 20 minute nebulization): 10 min
Tmax ([6]; male, ICR, mouse, lung, inhaled or intranasal, Tmax Lung, Small Mice (low flow rate, 1 L/min), single dose, 20 minute nebulization): 30 min
Tmax ([6]; male, ICR, mouse, plasma (heading says blood), inhaled or intranasal, Blood Tmax, summary table): 20 to 30 min
Cmax ([6]; male, ICR, mouse, plasma, inhaled or intranasal, 6.09 microgram/mL, Cmax Plasma, Small Mice (low flow rate, 1 L/min), single dose): 7090 ng/mL
Tmax ([6]; male, ICR, mouse, plasma, inhaled or intranasal, 6.09 microgram/mL, Tmax Plasma, Small Mice (low flow rate, 1 L/min), single dose, 20 minute nebulization): ≤ 30 min
AUC(0-t) ([6]; male, ICR, mouse, plasma, inhaled or intranasal, Large Mice (high flow rate, 5 L/min), single dose): 2270 ng·h/mL
AUC(0-t) ([6]; male, ICR, mouse, plasma, inhaled or intranasal, Small Mice (low flow rate, 1 L/min), single dose): 25800 ng·h/mL
Cmax ([6]; male, ICR, mouse, plasma, inhaled or intranasal, Blood Cmax, single-dose): 7090 ng/mL
Cmax ([6]; male, ICR, mouse, plasma, inhaled or intranasal, Cmax Plasma, Large Mice (high flow rate, 5 L/min), single dose): 1180 ng/mL
Tmax ([6]; male, ICR, mouse, plasma, inhaled or intranasal, Tmax Plasma, Large Mice (high flow rate, 5 L/min), single dose, 20 minute nebulization): 20 min
Tmax ([6]; male, ICR, mouse, plasma, inhaled or intranasal, Tmax Plasma, Small Mice (low flow rate, 1 L/min), single dose, 20 minute nebulization): 30 min
Lung Cmax ([6]; single-dose, mouse): 11020 ng/mL
increase in total drug exposure as measured by AUC0-6 for lung tissue and plasma ([6]; slower flow rate (small mice) versus high flow rate (large mice)): > 10 fold

— patent US20110224232A1 (Board of Regents, The University of Texas System, priority 2008, published 2011)
